Measured values taken from PubChem BioAssay (NCI).
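Cultured in 96-well plates, cells were exposed to test compound for 48 hours across five concentrations. TGI denotes the concentration required for complete inhibition of growth.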

Experiments:
Test in all cases: inhibition of tumour cell growth, NCI panel, 48 h
[1] = system: HL-60(TB) leukemia
[2] = system: MDA-MB-231 breast
[3] = system: OVCAR-3 ovarian
[4] = system: OVCAR-4 ovarian
[5] = system: SF-268 CNS
[6] = system: SF-539 CNS
[7] = system: SK-MEL-5 melanoma
[8] = system: SK-OV-3 ovarian
[9] = system: SNB-75 CNS
[10] = system: U251 CNS

Row | SMILES | TGI [1] [µM] | TGI [2] [µM] | TGI [3] [µM] | TGI [4] [µM] | TGI [5] [µM] | TGI [6] [µM] | TGI [7] [µM] | TGI [8] [µM] | TGI [9] [µM] | TGI [10] [µM]
1 | COc1ccc(/C(=N/O)c2ccccc2-c2nc3ccccc3c(=O)n2-c2ccc(S(=O)(=O)Nc3ncccn3)cc2)cc1C | 20 | > 31.6 | 25.9 | > 31.6 | > 31.6 | 27.2 | 25.4 | 20.8 | 26.6 | 22.9
2 | Cc1ccccc1OC(C)C(=O)NN1C(=O)CC(=O)N(c2ccc(Cl)cc2)C1=S (stereo not given) | 39.8 | > 100 | > 100 | > 100 | > 100 | > 100 | 74.4 | > 100 | > 100 | > 100
